This is an account of results in patent US8017656B2, “Organic sulfur compounds and use thereof” (Sumitomo Chemical Company, Limited, priority 2005, dated 2011).

Like-named read-outs stand apart in the source and are kept apart here. A value given as a limit tells only on which side of the number the result lay.

Holding throughout (type): in vivo
One experiment concerns Musca domestica. The experiment can be described thus: Test Example 2: filter paper/sucrose bait test against housefly imagoes. Particulars: read-out: rate of dead pests. The procedure: On the bottom of a polyethylene cup having a diameter of 5.5 cm, a filter paper having the same diameter was laid, and 0.7 ml of the above test solution was added dropwise on the filter paper, followed by putting 30 mg of sucrose on it uniformly as a bait. Ten female Musca domestica imagoes were set free in the polyethylene cup and covered it with a lid. After 24 hours, the number of surviving and dead Musca domestica was examined and the rate of dead pests was calculated.

The subject of a further experiment is Culex pipiens pallens. The experiment can be described thus: Test Example 4: mosquito larvae test in treated water. Particulars: 24 h, read-out: rate of dead pests. The procedure: 0.7 ml of above test solution was added to 100 ml of ion exchanged water (active ingredient concentration: 3.5 ppm). Twenty last-instar larvae of Culex pipiens pallens were set free in the solution. After one day, the number of surviving and dead Culex pipiens pallens was examined and the rate of dead pests was calculated.

For another experiment, the system named is Blattella germanica. The experiment can be described thus: Test Example 3: filter paper/sucrose bait test against German cockroach imagoes. The following applies: for pest or weed control at 500 ppm: Blattella germanica, 144 h, read-out: rate of dead pests. On the procedure:
On the bottom of a polyethylene cup having a diameter of 5.5 cm, a filter paper having the same diameter was laid, and 0.7 ml of the above test solution was added dropwise on the filter paper, followed by putting 30 mg of sucrose on it uniformly as a bait. Two male Blattella germanica imagoes were set free in the polyethylene cup and covered it with a lid. After 6 days, the number of surviving and dead Blattella germanica was examined and the rate of dead pests was calculated.

Setting [1] is: 500 ppm test solution, 0.7 ml on filter paper with 30 mg sucrose, ten female imagoes, after 24 hours.
[2] abbreviates: 500 ppm test solution, 0.7 ml on filter paper with 30 mg sucrose, two male imagoes, after 6 days.
Setting [3] is: active ingredient concentration 3.5 ppm in water, twenty last-instar larvae, after one day.

Consider `NC(=O)C(Cl)(CCC(F)(F)C(F)(F)C(F)(F)F)S(=O)(=O)CCC(F)(F)F` (stereo not drawn) [(84)], for which the pest or weed control at 500 ppm in the experiment with Musca domestica (24 h) is at least 70%; with Blattella germanica it was 100%. Also, the pest or weed control at 3.5 ppm with Culex pipiens pallens was at least 90%.

As for `NC(=O)C(F)(CCC(F)(F)C(F)(F)F)S(=O)(=O)CCC(F)(F)F` (stereo not drawn) [(64)], the pest or weed control at 500 ppm was at least 70% in the experiment with Musca domestica (setting [1]) and 100% in the experiment on Blattella germanica (setting [2]).

In the case of `CN(C)C(=O)C(C)(CCC(F)(F)C(F)(F)F)S(=O)(=O)CCC(F)(F)F` (stereo not drawn) [(36)], the pest or weed control at 500 ppm is at least 70% with Musca domestica (setting [1]) and 100% in the experiment on Blattella germanica (setting [2]). In addition, in the experiment with Culex pipiens pallens (setting [3]), the pest or weed control at 3.5 ppm is at least 90%.

For `COC(=O)C(CCC(F)(F)C(F)(F)F)S(=O)(=O)CCC(F)(F)C(F)(F)C(F)(F)F` (stereo not drawn) [(42)], in the experiment on Culex pipiens pallens, the pest or weed control at 3.5 ppm was at least 90%.

As for `COC(=O)C(F)(CCC(F)(F)C(F)(F)F)S(=O)(=O)CCC(F)(F)C(F)(F)F` (stereo not drawn) [(72)], the pest or weed control at 500 ppm with Musca domestica (setting [1]) is at least 70%; in the experiment with Blattella germanica (setting [2]), 100%. The pest or weed control at 3.5 ppm with Culex pipiens pallens (setting [3]) is at least 90%.

As for `CC(C#N)(CCCC(F)(F)F)S(=O)(=O)CCC(F)(F)F` (stereo not drawn) [(45)], the pest or weed control at 500 ppm with Musca domestica (setting [1]) was at least 70%; in the experiment on Blattella germanica (setting [2]), 100%. The pest or weed control at 3.5 ppm with Culex pipiens pallens (setting [3]) was at least 90%.

With `CCC(C#N)(CCC(F)(F)C(F)(F)F)S(=O)(=O)CCC(F)(F)F` (stereo not drawn) [(15)], the pest or weed control at 500 ppm in the experiment with Musca domestica (setting [1]) was at least 70%; with Blattella germanica (setting [2]), 100%. Further, the pest or weed control at 3.5 ppm in the experiment on Culex pipiens pallens (setting [3]) was at least 90%.

Take `CC(C#N)(CCC(F)(F)C(F)(F)F)SCCC(F)(F)F` (stereo not drawn) [(50)]: the pest or weed control at 500 ppm with Musca domestica (setting [1]) was at least 70%; with Blattella germanica (setting [2]), 100%. For the same compound, in the experiment on Culex pipiens pallens (setting [3]), the pest or weed control at 3.5 ppm was at least 90%.

In the case of `CNC(=O)C(Cl)(CCC(F)(F)C(F)(F)F)S(=O)(=O)CCC(F)(F)F` (stereo not drawn) [(75)], the pest or weed control at 500 ppm in the experiment on Musca domestica (setting [1]) was at least 70%; in the experiment on Blattella germanica (setting [2]) it was 100%. Besides, the pest or weed control at 3.5 ppm in the experiment on Culex pipiens pallens (setting [3]) was at least 90%.

In the case of `COC(=O)C(C)(CCC(F)(F)C(F)(F)F)S(=O)(=O)CCC(F)(F)C(F)(F)C(F)(F)F` (stereo not drawn) [(43)], the pest or weed control at 500 ppm with Musca domestica (24 h) is at least 70%.

For `COC(=O)C(CCCC(F)(F)C(F)(F)F)S(=O)(=O)CCC(F)(F)F` (stereo not drawn) [(101)], the pest or weed control at 500 ppm with Musca domestica (setting [1]) was at least 70%; in the experiment with Blattella germanica (setting [2]), 100%.

For `CC(C#N)(CCC(F)(F)C(F)(F)F)[S+]([O-])CCC(F)(F)F` (stereo not drawn) [(57)], the pest or weed control at 500 ppm in the experiment on Musca domestica (setting [1]) is at least 70%; with Blattella germanica (setting [2]), 100%. Also, in the experiment on Culex pipiens pallens (setting [3]), the pest or weed control at 3.5 ppm was at least 90%.

Take `N#CC(Cl)(CCC(F)(F)C(F)(F)F)S(=O)(=O)CCC(F)(F)F` (stereo not drawn) [(21)]: the results for the pest or weed control at 500 ppm in the experiment on Musca domestica (setting [1]) and in the experiment with Blattella germanica (setting [2]) were at least 70% and 100%, respectively. Also, the pest or weed control at 3.5 ppm in the experiment with Culex pipiens pallens (setting [3]) was at least 90%.

As for `CCCNC(=O)C(C)(CCC(F)(F)C(F)(F)F)S(=O)(=O)CCC(F)(F)F` (stereo not drawn) [(40)], the pest or weed control at 500 ppm in the experiment on Musca domestica (setting [1]) is at least 70%; with Blattella germanica (setting [2]) it was 100%. For the same compound, the pest or weed control at 3.5 ppm in the experiment on Culex pipiens pallens (setting [3]) was at least 90%.

`CC(C)(C)OC(=O)C(CCC(F)(F)C(F)(F)F)S(=O)(=O)CCC(F)(F)F` (stereo not drawn) [(25)]: the pest or weed control at 500 ppm with Musca domestica (setting [1]) is at least 70%. Also, the pest or weed control at 3.5 ppm with Culex pipiens pallens (setting [3]) was at least 90%.

Turning to `NC(=O)C(Cl)(CCC(F)(F)F)S(=O)(=O)CCC(F)(F)F` (stereo not drawn) [(81)], the values for the pest or weed control at 500 ppm in the experiment on Musca domestica (setting [1]) and in the experiment with Blattella germanica (setting [2]) were at least 70% and 100%, respectively. For the same compound, the pest or weed control at 3.5 ppm with Culex pipiens pallens (setting [3]) was at least 90%.

Turning to `NC(=O)C(Cl)(CCCC(F)(F)C(F)(F)F)S(=O)(=O)CCC(F)(F)F` (stereo not drawn) [(103)], the values for the pest or weed control at 500 ppm in the experiment with Musca domestica (setting [1]) and with Blattella germanica (setting [2]) were at least 70% and 100%, respectively. The pest or weed control at 3.5 ppm with Culex pipiens pallens (setting [3]) is at least 90%.

On to `COC(=O)C(CCCC(F)(F)F)S(=O)(=O)CCC(F)(F)F` (stereo not drawn) [(22)], for which the pest or weed control at 500 ppm in the experiment on Musca domestica (setting [1]) was at least 70%. The pest or weed control at 3.5 ppm in the experiment with Culex pipiens pallens (setting [3]) was at least 90%.

With `NC(=O)C(Cl)(CCC(F)(F)C(F)(F)F)S(=O)(=O)CCC(F)(F)F` (stereo not drawn) [(59)], the pest or weed control at 500 ppm was at least 70% in the experiment with Musca domestica (setting [1]) and 100% in the experiment with Blattella germanica (setting [2]). Moreover, the pest or weed control at 3.5 ppm in the experiment on Culex pipiens pallens (setting [3]) was at least 90%.

As to `N#CC(CCC(F)(F)C(F)(F)C(F)(F)C(F)(F)F)S(=O)(=O)CCC(F)(F)F` (stereo not drawn) [(7)], the pest or weed control at 3.5 ppm in the experiment on Culex pipiens pallens is at least 90%. The pest or weed control at 500 ppm with Blattella germanica turned out to be 100%.

`N#CC(CCCC(F)(F)F)S(=O)(=O)CCC(F)(F)F` (stereo not drawn) [(39)]: the results for the pest or weed control at 500 ppm in the experiment on Musca domestica (setting [1]) and with Blattella germanica (setting [2]) were at least 70% and 100%, respectively. The pest or weed control at 3.5 ppm in the experiment with Culex pipiens pallens (setting [3]) is at least 90%.

For the compound `NC(=O)C(CCC(F)(F)C(F)(F)C(F)(F)F)S(=O)(=O)CCC(F)(F)C(F)(F)F` (stereo not drawn) [(55)], the pest or weed control at 500 ppm in the experiment on Musca domestica (24 h) is at least 70%; in the experiment with Blattella germanica, 100%.

On to `N#CC(CC(F)(F)C(F)(F)C(F)(F)F)S(=O)(=O)CCC(F)(F)C(F)(F)F` (stereo not drawn) [(9)], for which the pest or weed control at 500 ppm in the experiment with Musca domestica (24 h) is at least 70%; in the experiment on Blattella germanica it was 100%. In addition, the pest or weed control at 3.5 ppm with Culex pipiens pallens was at least 90%.

Turning to `COC(=O)C(Cl)(CCC(F)(F)C(F)(F)C(F)(F)F)S(=O)(=O)CCC(F)(F)F` (stereo not drawn) [(83)], the pest or weed control at 3.5 ppm with Culex pipiens pallens is at least 90%.

For the compound `COC(=O)C(CCC(F)(F)F)S(=O)(=O)CCC(F)(F)C(F)(F)F` (stereo not drawn) [(92)], in the experiment on Culex pipiens pallens (setting [3]), the pest or weed control at 3.5 ppm was at least 90%.

Turning to `NC(=O)C(Cl)(CCC(F)(F)C(F)(F)C(F)(F)C(F)(F)F)S(=O)(=O)CCC(F)(F)F` (stereo not drawn) [(87)], the figures for the pest or weed control at 500 ppm in the experiment on Musca domestica (24 h) and with Blattella germanica were at least 70% and 100%, respectively. Further, in the experiment with Culex pipiens pallens, the pest or weed control at 3.5 ppm is at least 90%.

As for `COC(=O)C(C)(CCCC(F)(F)F)S(=O)(=O)CCC(F)(F)F` (stereo not drawn) [(44)], the results for the pest or weed control at 500 ppm in the experiment on Musca domestica (setting [1]) and in the experiment on Blattella germanica (setting [2]) were at least 70% and 100%, respectively.

For the compound `COC(=O)C(CCCC(F)(F)F)S(=O)(=O)CCC(F)(F)F` (stereo not drawn) [(78)], the pest or weed control at 500 ppm in the experiment with Blattella germanica (setting [2]) is 100%.

Regarding `CCCC(CCC(F)(F)C(F)(F)F)(C(=O)OC)S(=O)(=O)CCC(F)(F)F` (stereo not drawn) [(28)], the pest or weed control at 500 ppm in the experiment with Musca domestica (setting [1]) is at least 70%.

`COC(=O)C(CCC(F)(F)C(F)(F)F)S(=O)(=O)CCC(F)(F)C(F)(F)F` (stereo not drawn) [(24)]: in the experiment on Culex pipiens pallens (setting [3]), the pest or weed control at 3.5 ppm was at least 90%.

Consider `CCCCC(C#N)(CCC(F)(F)C(F)(F)F)S(=O)(=O)CCC(F)(F)F` (stereo not drawn) [(18)], for which, in the experiment on Musca domestica (setting [1]), the pest or weed control at 500 ppm is at least 70%. The pest or weed control at 3.5 ppm in the experiment with Culex pipiens pallens (setting [3]) is at least 90%.

With `COC(=O)C(Cl)(CCCCC(F)(F)F)S(=O)(=O)CCC(F)(F)F` (stereo not drawn) [(99)], the pest or weed control at 500 ppm in the experiment on Musca domestica (setting [1]) was at least 70%.

Consider `COC(=O)C(CCC(F)(F)C(F)(F)C(F)(F)F)S(=O)(=O)CCC(F)(F)C(F)(F)F` (stereo not drawn) [(51)], for which the pest or weed control at 3.5 ppm with Culex pipiens pallens was at least 90%.

As for `COC(=O)C(CCC(F)(F)F)S(=O)(=O)CCC(F)(F)F` (stereo not drawn) [(76)], in the experiment with Culex pipiens pallens (setting [3]), the pest or weed control at 3.5 ppm was at least 90%.

For the compound `CCCCCC(C#N)(CCC(F)(F)C(F)(F)F)S(=O)(=O)CCC(F)(F)F` (stereo not drawn) [(19)], the pest or weed control at 500 ppm in the experiment on Musca domestica (setting [1]) was at least 70%. In addition, in the experiment on Culex pipiens pallens (setting [3]), the pest or weed control at 3.5 ppm was at least 90%.

On to `COC(=O)C(F)(CCC(F)(F)C(F)(F)F)S(=O)(=O)CCC(F)(F)C(F)(F)C(F)(F)F` (stereo not drawn) [(66)], for which, in the experiment on Musca domestica (24 h), the pest or weed control at 500 ppm is at least 70%.

Regarding `COC(=O)C(CCC(F)(F)C(F)(F)C(F)(F)F)S(=O)(=O)CCC(F)(F)C(F)(F)F` (stereo not drawn) [(95)], in the experiment on Musca domestica (24 h), the pest or weed control at 500 ppm was at least 70%.

In the case of `N#CC(CCC(F)(F)C(F)(F)F)SCCC(F)(F)F` (stereo not drawn) [(47)], the “rate of dead pests” value in the experiment with Blattella germanica (setting [2]) worked out at 100%.

For the compound `COC(=O)C(CCC(F)(F)C(F)(F)C(F)(F)F)S(=O)(=O)CCC(F)(F)F` (stereo not drawn) [(82)], in the experiment on Musca domestica (24 h), the pest or weed control at 500 ppm was at least 70%. For the same compound, in the experiment on Culex pipiens pallens, the pest or weed control at 3.5 ppm was at least 90%.
